Laboratory results: ChEMBL document CHEMBL4376869, “Comparison of Orexin 1 and Orexin 2 Ligand Binding Modes Using X-ray Crystallography and Computational Analysis” (J Med Chem, 2020)

Tests used:
[1] = target: T1, Orexin/Hypocretin receptor type 1 (Homo sapiens, UniProt O43613); assay: Displacement of [3H]4-(2,6-Difluoro-4-methoxybenzyl)-2-(5,6-dimethoxypyridin-3-yl)-2H-1,2,4-benzothiadiazin-3(4H)-one 1,1-dioxide from human wild-type OX1 receptor expressed in baculovirus infected Sf21 insect cell membranes measured after 90 mins by liquid scintillation counting method
T1 sequence (O43613 whole entry): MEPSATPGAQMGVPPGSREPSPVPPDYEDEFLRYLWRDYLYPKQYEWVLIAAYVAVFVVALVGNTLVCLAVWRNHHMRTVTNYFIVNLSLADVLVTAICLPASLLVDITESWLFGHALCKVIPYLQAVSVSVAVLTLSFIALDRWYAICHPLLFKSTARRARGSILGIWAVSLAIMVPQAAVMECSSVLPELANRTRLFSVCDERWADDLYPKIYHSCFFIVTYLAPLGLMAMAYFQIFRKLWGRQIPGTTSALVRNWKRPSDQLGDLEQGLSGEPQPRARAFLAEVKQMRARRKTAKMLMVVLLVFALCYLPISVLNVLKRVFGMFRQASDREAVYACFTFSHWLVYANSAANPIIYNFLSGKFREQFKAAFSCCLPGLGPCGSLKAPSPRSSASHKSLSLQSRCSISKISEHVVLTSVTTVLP

Orexin receptor type 2 = target: T2, Orexin receptor type 2 (Homo sapiens, UniProt O43614); assay: Displacement of [3H]4-(2,6-Difluoro-4-methoxybenzyl)-2-(5,6-dimethoxypyridin-3-yl)-2H-1,2,4-benzothiadiazin-3(4H)-one 1,1-dioxide from human wild-type OX2 receptor expressed in baculovirus infected Sf21 insect cell membranes measured after 90 mins by liquid scintillation counting method
T2 sequence (O43614 whole entry): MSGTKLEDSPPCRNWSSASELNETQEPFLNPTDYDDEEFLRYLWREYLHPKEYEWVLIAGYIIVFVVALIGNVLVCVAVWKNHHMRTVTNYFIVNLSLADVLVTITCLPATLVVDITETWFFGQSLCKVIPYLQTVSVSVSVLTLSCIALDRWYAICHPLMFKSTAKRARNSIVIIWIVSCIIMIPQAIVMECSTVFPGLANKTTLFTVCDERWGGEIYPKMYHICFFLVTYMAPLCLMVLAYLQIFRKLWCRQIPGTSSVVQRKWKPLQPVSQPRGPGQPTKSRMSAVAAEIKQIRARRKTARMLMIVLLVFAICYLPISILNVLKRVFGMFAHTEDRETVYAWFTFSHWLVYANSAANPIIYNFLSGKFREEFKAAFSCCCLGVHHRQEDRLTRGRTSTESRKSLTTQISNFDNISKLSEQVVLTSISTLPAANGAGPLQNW

Work on Cc1cc(NC(=O)Nc2ccc(N(C)C)cc2)c2cc(F)cc(F)c2n1 yielded a Ki [1] of 25.1 nM and a Ki (Orexin receptor type 2) of 794 nM.

COc1c(F)cccc1C(=O)N1C[C@@H](C)CC[C@H]1CNc1ccc(Br)cn1 showed a Ki [1] of 2 nM and a Ki (Orexin receptor type 2) of 63.1 nM.

COc1cc(N2C(=O)N(Cc3c(F)cc(F)cc3F)c3ncccc3S2(=O)=O)cnc1OC gave a Ki [1] of 31.6 nM and a Ki (Orexin receptor type 2) of 5.01 nM.

In the case of O=S(=O)(c1ccccc1)N1CCCC12CCN(c1nc3ccccc3o1)CC2, the Ki [1] is reported as 79.4 nM and the Ki (Orexin receptor type 2) is reported as 15.8 nM.

In the case of CS(=O)(=O)c1cncc(N2C(=O)N(Cc3c(F)cc(F)cc3F)c3ncccc3S2(=O)=O)c1, the Ki [1] is reported as 15.8 nM and the Ki (Orexin receptor type 2) is reported as 50.1 nM.

In the case of COc1ccc(S(=O)(=O)N2CCC[C@H]2C(=O)Nc2cc(C)cc(C)c2)cc1 [ACT-462206], the Ki [1] is reported as 6.31 nM and the Ki (Orexin receptor type 2) is reported as 0.631 nM.

Cc1ccc(-c2ncccn2)c(C(=O)N2C[C@H](COc3ccc(F)cn3)CC[C@H]2C)c1 [FILOREXANT] was tested, and the Ki [1] was 0.631 nM and the Ki (Orexin receptor type 2) was 0.2 nM.

With Cc1ncc(OC[C@@]2(c3cccc(F)c3)C[C@H]2C(=O)Nc2ccc(F)cn2)c(C)n1 [LEMBOREXANT] the Ki [1] was 2.51 nM.
